The text below walks through data of US20220184075A1, “PHARMACEUTICAL COMPOSITION CONTAINING HDAC6 INHIBITOR AS ACTIVE INGREDIENT FOR PREVENTION OR TREATMENT OF ITCHING” (BNH RESEARCH CO.,LTD., priority 2018, published 2022).

One experiment deals with T1, HDAC6 (Homo sapiens, UniProt Q9UBN7).
T1 sequence (Q9UBN7 1-1215): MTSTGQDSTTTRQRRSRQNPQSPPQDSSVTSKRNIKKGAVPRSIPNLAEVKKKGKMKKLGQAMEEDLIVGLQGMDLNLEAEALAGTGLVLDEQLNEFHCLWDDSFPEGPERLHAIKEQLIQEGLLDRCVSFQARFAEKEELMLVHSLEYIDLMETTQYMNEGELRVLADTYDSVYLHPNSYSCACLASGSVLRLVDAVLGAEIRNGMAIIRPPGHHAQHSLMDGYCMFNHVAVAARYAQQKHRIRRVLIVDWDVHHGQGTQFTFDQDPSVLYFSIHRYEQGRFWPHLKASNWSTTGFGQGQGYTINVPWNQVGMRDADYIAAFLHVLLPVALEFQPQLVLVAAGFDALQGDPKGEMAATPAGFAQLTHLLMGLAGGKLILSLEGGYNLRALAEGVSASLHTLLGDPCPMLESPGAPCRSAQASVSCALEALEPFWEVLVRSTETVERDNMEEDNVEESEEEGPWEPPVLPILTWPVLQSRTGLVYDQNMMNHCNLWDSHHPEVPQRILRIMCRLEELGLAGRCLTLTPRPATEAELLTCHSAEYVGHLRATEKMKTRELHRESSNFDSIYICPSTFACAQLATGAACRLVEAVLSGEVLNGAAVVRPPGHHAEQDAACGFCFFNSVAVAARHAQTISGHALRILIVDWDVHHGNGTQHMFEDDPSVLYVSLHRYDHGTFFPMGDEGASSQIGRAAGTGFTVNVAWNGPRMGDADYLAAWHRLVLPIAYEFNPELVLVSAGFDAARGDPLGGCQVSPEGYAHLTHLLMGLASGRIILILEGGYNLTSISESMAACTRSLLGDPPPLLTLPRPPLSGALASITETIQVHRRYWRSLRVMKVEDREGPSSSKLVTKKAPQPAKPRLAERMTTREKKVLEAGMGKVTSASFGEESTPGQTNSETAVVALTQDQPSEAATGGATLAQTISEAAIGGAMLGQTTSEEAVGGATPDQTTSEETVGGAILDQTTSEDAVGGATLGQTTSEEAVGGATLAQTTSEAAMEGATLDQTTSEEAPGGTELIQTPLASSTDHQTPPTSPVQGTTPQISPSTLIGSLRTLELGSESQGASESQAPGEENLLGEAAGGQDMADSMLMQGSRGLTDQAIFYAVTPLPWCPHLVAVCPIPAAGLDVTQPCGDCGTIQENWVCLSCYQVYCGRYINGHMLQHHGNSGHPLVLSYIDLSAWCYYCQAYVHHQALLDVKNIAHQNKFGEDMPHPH
Conditions: cited from earlier work; for Selectivity: HDAC6 inhibitor selectivity, in words; for IC50: HDAC6 inhibitor.

In experiment [1] the test system is trypsin-induced itching (scratching behavior). In words: Trypsin-induced scratching behavior in mice (cheek injection, bouts counted for 30 minutes). In kind it is in vivo, Male C57BL/6 mice. Conditions: for number of scratching bouts compared with the only trypsin-injected mice: co-injected with 200 μg trypsin into skin of shaved right cheek, 30 minutes, 7.4 μg tubastatin A HCl or 61.4 ng M344, unpaired t-test. As to the method:
Male C57BL/6 mice (6-week-old) were divided into groups of 3 to 5 animals, and isolated under a 12-hour light/dark cycle while being allowed to freely access water and food. Trypsin is diluted in phosphate buffered saline (PBS) to have the working concentration. […] All drug-containing stock solutions were stored in a freezer at −20 □, dissolved immediately prior to the behavioral experiment, and diluted with PBS to the final working concentration. For behavioral experiments, the right cheek of all mice was shaved, and the drug was injected after the acclimation period in an observation chamber for 2 days (2 hours/day) prior to the experiment date and 1 hour on the day of the experiment. The mice were subdued by being gently grabbed by a hand without anesthesia for drug treatment. All drugs were injected into the skin layer of the shaved right cheek at 20 μL using a 31-G insulin syringe. After returning to the observation chamber, all mice were videotaped for 30 minutes immediately after drug injection to evaluate itching behavior. For the behavioral experiment, the action of scratching the drug-injected site with a hind leg, and then placing the leg on the ground again or licking the site with a mouth was counted as 1 bout. All behavioral experiments were evaluated by testers in a blinded drug test. Statistical analysis for the experiments was performed using an unpaired t-test, and P<0.05 or P<0.01 was considered statistically significant (*: P<0.05; **: P<0.01). Data was expressed as mean±standard error (SEM).

As for `O=C(NO)c1cnc(NC2(c3cccc(F)c3)CCCCC2)nc1` [ACY-775], on HDAC6, the Selectivity entry is given as “Very high” and the IC50 is 7.5 nM. As to trypsin, in experiment [1] (200 μg trypsin alone injected into cheek skin of normal mice, FIG. 1), the “scratching bouts for 30 minutes” value is “approximately 100 bouts”. Take `O=C(NO)C1=CCCC1` [BRD9757]: at HDAC6, the Selectivity entry was “Very high” and the IC50 was 30 nM.

For the compound `CN1CCc2c(c3ccccc3n2Cc2ccc(C(=O)NO)cc2)C1` [Tubastatin A, tubastatin A], the “number of scratching bouts compared with the only trypsin-injected mice” value in experiment [1] is on record as “statistically significant smaller number of scratching bouts”. For `CN(C)c1ccc(C(=O)NCCCCCCC(=O)NO)cc1` [M344], the “number of scratching bouts compared with the only trypsin-injected mice” value in experiment [1] is “statistically significant smaller number of scratching bouts”. Further, at HDAC6, the Selectivity result is reported as “High” and the IC50 is 88 nM.

Usually IC50 stands for the midpoint of a concentration-inhibition curve.
